# Measurements published in patent US20090105206A1, “Copper Melphalan And Copper Tegafur As Anti-Tumor Agents” (priority 2004, published 2009).
# Values joined by “and” are separate entries in the source; they are usually repeats but may differ in a detail not shown here. Equal entries are not always repeated.
# How the values were obtained:
# [1] = tested on: murine renal cell carcinoma (RENCA) tumor cells applied orthotopically; assay: Example 3: murine renal cell carcinoma model (RENCA), substance Day 10-18; assay type: in vivo, Balb/c mouse; settings: 5 and 7.5 mg/kg per day i.p., Day 10-18, findings Day 19
# Description: Using a murine renal cell carcinoma model (RENCA) of the Balb/c mouse a test of the effectiveness of mel-Cu-mel was carried out on the primary tumor, the metastases and the vessel density. For this the tumor cells were applied orthotopically into the left-hand peri-renal capsule of syngenic mice, the administered dose per day of treatment being: 5 mg/kg mouse and 7.5 mg/kg mouse, 5 animals per dose plus 5 animals for solvent control. The anti-tumor agent according to the invention Cu(mel)2 was applied intraperitonial. The treatment model was as follows:
# As a control 5 animals were used to which no active ingredient was administered and for comparison a group of 5 animals were administered melphalan alone.
# OVCAR-3/P19 tumor cells = assay: Example 6: NOD/SCID mice s.c. injected with OVCAR-3 tumor cells; assay type: in vivo, female NOD/SCID mice; parameters: Vol (tumor volume) Day 20 / Vol (tumor volume) Day 30 / Vol (tumor volume) Day 37: unit: cm^3
# Description: 2×10^6 OVCAR-3/P19 tumor cells were s.c. injected into female NOD/SCID mice. The mice were treated as follows.
# The treatment began with a mean tumor volume of 80 mm^3.
# To level possible differences in tumor volume at the start of treatment in the individual groups and to make evident differences owing to the low absolute volumes in the treatment groups, the relative tumor volumes (RTV) have been analyzed. The relative tumor volume results from the ratio of the volume on day x and the tumor volume at the start of treatment in the same test animal. […] The tumor growth was stopped in group 2 after just 7 days. After 3 days of constant tumor volume a tumor regression began from day 30 (10th day of treatment) in the test animals treated with copper-melphalan.
# [2] = tested on: murine renal cell carcinoma (RENCA) tumor cells applied orthotopically; assay: Example 5: orthotopic RENCA model, late treatment from Day 10; assay type: in vivo, Balb/c mouse; settings: for Kidney weight / Lung weight / Number of intestinal lymph node metastases / Number of lung metastases (late treatment day 10-14) / Kidney volume: day 18, individual animals; for Vessel density, later start of treatment day 10-14: individual sections
# Description: The tests were carried out on a murine renal cell carcinoma model (RENCA) of the Balb/c mouse. The tumor cells were applied orthotopically into the left-hand renal capsule of syngenic mice. The effect of the treatment carried out on a primary tumor (in the implanted kidney), metastases (predominantly in the lungs, spleen and intestinal lymph nodes) and vessel density were investigated.
# After anesthesia by means of isoflurane narcosis (O2— flow approx. 2.0 l with 0.5-1.5% isoflurane) a small incision was made in the mouse's left flank. The kidney was prepared and presented free from the peritoneum. A 27 G needle was introduced via the lower kidney pole through to below the renal capsule with visual inspection, and […] in 70 μl aliquots respectively applied once. The occurrence of a visible liquid-filled blister between kidney parenchyma and renal capsule and the discoloration of the kidneys were regarded as criteria for successful application. The kidney was subsequently reset and the incision into the abdominal wall closed by means of fascia stitches and cutaneous stitches with absorbable stitching material. Five test groups with ten animals respectively were formed. Group 1 negative control, group 2 positive control melphalan (Glaxo), group 3 and 4 MOC melphalan 2.5 mg/kg and 5 mg/kg. In the case of group 5 an antiangiogenically effective substance was applied as the positive control. The start of treatment was fixed for day 1 post op. for Cu(melphalan)2. Treatment was carried out daily up to day seven (see treatment model). The test was ended after 19 days since, owing to their size, the control tumors required termination for ethical reasons.
# After selecting the animals the tissues to be examined were quickly transferred into liquid nitrogen and then frozen at −80° C. 5-10 μm thick sections were prepared from the tissue parts. The preparations were immunohistochemically dyed with an anti-CD31 antibody (Pecam-1) and the number of vessels in the control and treatment groups counted. Two sections of each tumor with three areas respectively were used for counting the vessels.
# The study report matches that of Example 4, differing only in terms of treatment intervals and dose groups. Four test groups with ten animals respectively were formed. Group 1 negative control, group 2 positive control melphalan (Glaxo), groups 3 and 4 Cu(melphalan)2 5 mg/kg and 7.5 mg/kg. The start of treatment was fixed for day 10 post op. for all groups. The intention was for daily treatment from day 10 until day 17 (see treatment model). Owing to toxicities the treatment period was reduced to day 10-14. After 18 days the test was ended since, owing to their size, the control tumors required termination for ethical reasons.
# • The implantation day was counted as day 0. • Duration of the test 18 days. • Number of animals at beginning of test 40; no animals died during the op.
# [3] = Gr. 3, 7.5 mg/kg copper-melphalan i.p., individual animals
# [4] = Gr. 3, 7.5 mg/kg copper-melphalan i.p., n = 8
# [5] = Gr. 3, 7.5 mg/kg copper-melphalan i.p., n = 8, baseline
# [6] = Gr. 3, 7.5 mg/kg copper-melphalan vs 5 mg/kg melphalan
# [7] = Gr. 3, 7.5 mg/kg copper-melphalan vs 5 mg/kg melphalan, baseline
# [8] = Gr. 3, 7.5 mg/kg copper-melphalan vs control (PBS)
# [9] = Gr. 3, 7.5 mg/kg copper-melphalan vs control (PBS), baseline
# [10] = Cu(melphalan)2 8.8 μmol/kg (5 mg/kg) i.p. Day 10-14
# [11] = Cu(melphalan)2 13.2 μmol/kg (7.5 mg/kg/d) i.p. Day 10-14
smiles,measurement,setting,value
N[C@@H](Cc1ccc(N(CCCl)CCCl)cc1)C(=O)[O-].N[C@@H](Cc1ccc(N(CCCl)CCCl)cc1)C(=O)[O-].O.O.[Cu+2] [Cu(melphalan)2],kidney weight and kidney volume compared with the control (FIG. 5),[1],significantly lower kidney weight and kidney volume
same,lung weight compared with the control and with melphalan alone (FIG. 6),[1],reduced
same,"effectiveness compared with melphalan (RTV, FIG. 9)",OVCAR-3/P19 tumor cells; 7.5 mg/kg copper-melphalan vs 5 mg/kg melphalan i.p.,more effective than melphalan
same,day from which tumor regression began,"OVCAR-3/P19 tumor cells; 7.5 mg/kg i.p., 10th day of treatment, after 3 days of constant tumor volume",30 days
same,mice with tumor regression on day 37,"OVCAR-3/P19 tumor cells; Gr. 3, 7.5 mg/kg copper-melphalan",88%
same,Vol (tumor volume) Day 20,"OVCAR-3/P19 tumor cells; Gr. 3, 7.5 mg/kg copper-melphalan i.p. days 21-37 every 2nd day, Day 20 = start of treatment (baseline), individual animals",0.08 and 0.11 and 0.05 and 0.04 and 0.10 and 0.02 and 0.09 and 0.12
same,RTV (relative tumor volume) Day 20,"OVCAR-3/P19 tumor cells; Gr. 3, 7.5 mg/kg copper-melphalan i.p., baseline, individual animals",1.00
same,RTV (relative tumor volume) Day 30,OVCAR-3/P19 tumor cells; [3],1.63 and 1.36 and 2.20 and 1.75 and 1.90 and 2.50 and 1.78 and 1.83
same,RTV (relative tumor volume) Day 37,OVCAR-3/P19 tumor cells; [3],2.78 and 0.63 and 0.43 and 0.78 and 0.67 and 0.70 and 0.60 and 0.51
same,Vol (tumor volume) Day 30,OVCAR-3/P19 tumor cells; [3],0.13 and 0.15 and 0.11 and 0.07 and 0.19 and 0.05 and 0.16 and 0.22
same,Vol (tumor volume) Day 37,OVCAR-3/P19 tumor cells; [3],0.05 (3×) and 0.14 and 0.03 and 0.07 and 0.01 and 0.06
same,"RTV Day 30, mean",OVCAR-3/P19 tumor cells; [4],1.87
same,"RTV Day 30, median",OVCAR-3/P19 tumor cells; [4],1.81
same,"RTV Day 37, mean",OVCAR-3/P19 tumor cells; [4],0.89
same,"RTV Day 37, median",OVCAR-3/P19 tumor cells; [4],0.65
same,"Vol Day 30, mean",OVCAR-3/P19 tumor cells; [4],0.14
same,"Vol Day 30, median",OVCAR-3/P19 tumor cells; [4],0.14
same,"Vol Day 37, mean",OVCAR-3/P19 tumor cells; [4],0.06
same,"Vol Day 37, median",OVCAR-3/P19 tumor cells; [4],0.05
same,"RTV Day 20, mean",OVCAR-3/P19 tumor cells; [5],1.00
same,"RTV Day 20, median",OVCAR-3/P19 tumor cells; [5],1.00
same,"Vol Day 20, mean",OVCAR-3/P19 tumor cells; [5],0.08
same,"Vol Day 20, median",OVCAR-3/P19 tumor cells; [5],0.09
same,"RTV Day 30, mean in % of group 2",OVCAR-3/P19 tumor cells; [6],82.1%
same,"RTV Day 30, median in % of group 2",OVCAR-3/P19 tumor cells; [6],76.8%
same,"RTV Day 37, mean in % of group 2",OVCAR-3/P19 tumor cells; [6],61.3%
same,"RTV Day 37, median in % of group 2",OVCAR-3/P19 tumor cells; [6],45.7%
same,"Vol Day 30, mean in % of group 2",OVCAR-3/P19 tumor cells; [6],80.6%
same,"Vol Day 30, median in % of group 2",OVCAR-3/P19 tumor cells; [6],93.3%
same,"Vol Day 37, mean in % of group 2",OVCAR-3/P19 tumor cells; [6],55.1%
same,"Vol Day 37, median in % of group 2",OVCAR-3/P19 tumor cells; [6],63.4%
same,"RTV Day 20, mean in % of group 2",OVCAR-3/P19 tumor cells; [7],100.0%
same,"RTV Day 20, median in % of group 2",OVCAR-3/P19 tumor cells; [7],100.0%
same,"Vol Day 20, mean in % of group 2",OVCAR-3/P19 tumor cells; [7],89.7%
same,"Vol Day 20, median in % of group 2",OVCAR-3/P19 tumor cells; [7],113.3%
same,"RTV Day 30, mean in % of group 1",OVCAR-3/P19 tumor cells; [8],31.5%
same,"RTV Day 30, median in % of group 1",OVCAR-3/P19 tumor cells; [8],44.8%
same,"RTV Day 37, mean in % of group 1",OVCAR-3/P19 tumor cells; [8],8.2%
same,"RTV Day 37, median in % of group 1",OVCAR-3/P19 tumor cells; [8],8.0%
same,"Vol Day 30, mean in % of group 1",OVCAR-3/P19 tumor cells; [8],37.6%
same,"Vol Day 30, median in % of group 1",OVCAR-3/P19 tumor cells; [8],50.9%
same,"Vol Day 37, mean in % of group 1",OVCAR-3/P19 tumor cells; [8],9.3%
same,"Vol Day 37, median in % of group 1",OVCAR-3/P19 tumor cells; [8],7.0%
same,"RTV Day 20, mean in % of group 1",OVCAR-3/P19 tumor cells; [9],100.0%
same,"RTV Day 20, median in % of group 1",OVCAR-3/P19 tumor cells; [9],100.0%
same,"Vol Day 20, mean in % of group 1",OVCAR-3/P19 tumor cells; [9],81.3%
same,"Vol Day 20, median in % of group 1",OVCAR-3/P19 tumor cells; [9],113.3%
same,statistical comparison of effectiveness with melphalan at end of treatment (day 37),"OVCAR-3/P19 tumor cells; Mann-Whitney rank sum test, mean tumor volume p=0.021, mean RTV p=0.01",statistically significant higher degree of effectiveness
same,Kidney weight,[2]; [10],1.70 gr and 1.78 gr (2×) and 1.88 gr and 1.23 gr and 0.75 gr and 1.56 gr
same,Lung weight,[2]; [10],0.11 gr (2×) and 0.14 gr and 0.15 gr and 0.13 gr (2×) and 0.21 gr
same,Number of intestinal lymph node metastases,[2]; [10],20 and 40 and 36 and 12 and 64 and 51 and 75
same,Number of lung metastases (late treatment day 10-14),[2]; [10],28 and 0 (2×) and 21 and 345 and 431 and 750
same,"Vessel density, later start of treatment day 10-14",[2]; [10],44 (2×) and 38 and 34 and 56 (2×) and 46 and 26 and 51 and 72 and 25 and 35 and 40 and 31
same,Kidney volume,"[2]; Cu(melphalan)2 8.8 μmol/kg (5 mg/kg) i.p. from Day 10 (planned 10-17, reduced to 10-14)",3.12 cm^3 and 2.60 cm^3 and 2.63 cm^3 and 2.08 cm^3 and 2.90 cm^3 and 1.96 cm^3 and 2.76 cm^3
same,Kidney weight,[2]; [11],1.37 gr and 2.39 gr and 0.26 gr and 1.90 gr and 1.05 gr and 0.27 gr and 1.92 gr and 0.46 gr and 2.50 gr and 0.74 gr
same,Lung weight,[2]; [11],0.11 gr and 0.13 gr (2×) and 0.10 gr
same,Number of intestinal lymph node metastases,[2]; [11],0
same,Number of lung metastases (late treatment day 10-14),[2]; [11],0 (4×) and 3 and 77 and 750 and 300 and 4 and 10
same,"Vessel density, later start of treatment day 10-14",[2]; [11],35 (2×) and 52 and 58 and 43 and 48 and 65 and 53
same,Kidney volume,"[2]; Cu(melphalan)2 13.2 μmol/kg (7.5 mg/kg/d) i.p. from Day 10 (planned 10-17, reduced to 10-14)",1.96 cm^3 and 3.08 cm^3 and 0.60 cm^3 and 2.60 cm^3 and 1.98 cm^3 and 0.91 cm^3 and 3.06 cm^3 and 1.22 cm^3 and 3.33 cm^3 and 1.68 cm^3
same,antiangiogenic effect (vessel density),"[2]; dose of 8.8 μmol/kg, Day 10-14",significantly antiangiogenic
same,"anti-metastatic effect, lung metastases and lymph node metastases","[2]; dose of 13.2 μmol/kg, Day 10-14",significant anti-metastatic effect
same,anti-tumoral effect against the primary tumor,"[2]; dose of both 8.8 μmol/kg and 13.2 μmol/kg, Day 10-14",significant anti-tumoral effect
